# What was measured:
# [1] = biological target: Mu-type opioid receptor (Homo sapiens) (UniProt P35372); conditions: Compound concentration 10.0 uM
# [2] = biological target: Platelet-derived growth factor receptor alpha (Homo sapiens) (UniProt P16234); conditions: Compound concentration 1000.0 nM
# [3] = biological target: Serine/threonine-protein kinase PknB (Mycobacterium tuberculosis) (UniProt P9WI81); conditions: Compound concentration 1000.0 nM
# [4] = biological target: Tyrosine-protein kinase Blk (Homo sapiens) (UniProt P51451); conditions: Compound concentration 1000.0 nM
# Tyrosine-protein kinase Blk (Homo sapiens), sequence (P51451 2-505 limits assumed): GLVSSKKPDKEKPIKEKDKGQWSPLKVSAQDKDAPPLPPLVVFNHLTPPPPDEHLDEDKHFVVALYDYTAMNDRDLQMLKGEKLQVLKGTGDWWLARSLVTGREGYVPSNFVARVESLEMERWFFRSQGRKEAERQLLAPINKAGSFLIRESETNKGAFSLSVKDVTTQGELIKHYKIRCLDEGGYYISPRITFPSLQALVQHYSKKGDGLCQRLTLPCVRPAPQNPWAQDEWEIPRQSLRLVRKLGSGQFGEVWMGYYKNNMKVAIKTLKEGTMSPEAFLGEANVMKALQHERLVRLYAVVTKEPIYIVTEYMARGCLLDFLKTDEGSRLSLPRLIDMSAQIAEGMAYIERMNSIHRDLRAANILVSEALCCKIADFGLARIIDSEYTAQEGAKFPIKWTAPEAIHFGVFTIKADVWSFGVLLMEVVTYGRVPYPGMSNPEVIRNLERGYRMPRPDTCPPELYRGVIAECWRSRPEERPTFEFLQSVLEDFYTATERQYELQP
# [5] = system: Tyrosine-protein kinase ABL1 (Homo sapiens), P00519 [H396P]; conditions: Compound concentration 1000.0 nM
# [6] = biological target: Serine/threonine-protein kinase NIM1 (Homo sapiens) (UniProt Q8IY84); conditions: Compound concentration 1000.0 nM
# [7] = biological target: Cyclin-dependent kinase-like 1 (Homo sapiens) (UniProt Q00532); conditions: Compound concentration 1000.0 nM
# [8] = biological target: Epithelial discoidin domain-containing receptor 1 (Homo sapiens) (UniProt Q08345); conditions: Compound concentration 1000.0 nM
# [9] = biological target: Mitogen-activated protein kinase 12 (Homo sapiens) (UniProt P53778); conditions: Compound concentration 1000.0 nM
# [10] = biological target: Megakaryocyte-associated tyrosine-protein kinase (Homo sapiens) (UniProt P42679); conditions: Compound concentration 1000.0 nM
# [11] = biological target: GABA-A receptor; anion channel (Rattus norvegicus) (UniProt O09028+P15431+P18506+P18508+P19969+P20236+P23574+P23576+P28471+P28473+P30191+P62813+P63079+P63138+Q91ZM7+Q9ES14); conditions: Compound concentration 10.0 uM
# [12] = biological target: Ribosomal protein S6 kinase alpha-5 (Homo sapiens) (UniProt O75582); conditions: Compound concentration 1000.0 nM
# Ribosomal protein S6 kinase alpha-5 (Homo sapiens), sequence (O75582 whole entry, looked up): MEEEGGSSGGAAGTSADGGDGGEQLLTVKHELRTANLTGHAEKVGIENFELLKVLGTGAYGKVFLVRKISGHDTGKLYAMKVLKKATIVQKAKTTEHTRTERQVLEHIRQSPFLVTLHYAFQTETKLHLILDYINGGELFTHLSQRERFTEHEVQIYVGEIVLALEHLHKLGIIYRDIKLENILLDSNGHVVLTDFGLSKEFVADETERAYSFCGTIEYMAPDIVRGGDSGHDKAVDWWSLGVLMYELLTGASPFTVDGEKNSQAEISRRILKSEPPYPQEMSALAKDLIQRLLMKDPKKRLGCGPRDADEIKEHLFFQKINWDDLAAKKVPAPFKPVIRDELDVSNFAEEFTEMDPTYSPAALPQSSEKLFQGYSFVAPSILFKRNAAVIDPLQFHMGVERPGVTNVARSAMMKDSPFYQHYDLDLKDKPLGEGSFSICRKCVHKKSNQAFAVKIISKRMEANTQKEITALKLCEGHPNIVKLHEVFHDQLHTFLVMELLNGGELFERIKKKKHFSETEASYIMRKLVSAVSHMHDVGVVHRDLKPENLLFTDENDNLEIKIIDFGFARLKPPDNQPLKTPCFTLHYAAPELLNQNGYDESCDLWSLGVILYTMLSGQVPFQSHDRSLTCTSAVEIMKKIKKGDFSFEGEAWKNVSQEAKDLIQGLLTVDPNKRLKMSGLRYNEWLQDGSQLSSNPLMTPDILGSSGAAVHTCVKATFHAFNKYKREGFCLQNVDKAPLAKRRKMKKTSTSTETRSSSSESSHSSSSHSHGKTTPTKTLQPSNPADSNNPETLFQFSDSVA
# [13] = biological target: Mitogen-activated protein kinase kinase kinase 5 (Homo sapiens) (UniProt Q99683); conditions: Compound concentration 1000.0 nM
# [14] = system: Epidermal growth factor receptor (Homo sapiens), P00533 [UNDEFINED MUTATION]; conditions: Compound concentration 1000.0 nM
# [15] = biological target: Discoidin domain-containing receptor 2 (Homo sapiens) (UniProt Q16832); conditions: Compound concentration 1000.0 nM
# Discoidin domain-containing receptor 2 (Homo sapiens), sequence (Q16832 whole entry, the tested form may be a part): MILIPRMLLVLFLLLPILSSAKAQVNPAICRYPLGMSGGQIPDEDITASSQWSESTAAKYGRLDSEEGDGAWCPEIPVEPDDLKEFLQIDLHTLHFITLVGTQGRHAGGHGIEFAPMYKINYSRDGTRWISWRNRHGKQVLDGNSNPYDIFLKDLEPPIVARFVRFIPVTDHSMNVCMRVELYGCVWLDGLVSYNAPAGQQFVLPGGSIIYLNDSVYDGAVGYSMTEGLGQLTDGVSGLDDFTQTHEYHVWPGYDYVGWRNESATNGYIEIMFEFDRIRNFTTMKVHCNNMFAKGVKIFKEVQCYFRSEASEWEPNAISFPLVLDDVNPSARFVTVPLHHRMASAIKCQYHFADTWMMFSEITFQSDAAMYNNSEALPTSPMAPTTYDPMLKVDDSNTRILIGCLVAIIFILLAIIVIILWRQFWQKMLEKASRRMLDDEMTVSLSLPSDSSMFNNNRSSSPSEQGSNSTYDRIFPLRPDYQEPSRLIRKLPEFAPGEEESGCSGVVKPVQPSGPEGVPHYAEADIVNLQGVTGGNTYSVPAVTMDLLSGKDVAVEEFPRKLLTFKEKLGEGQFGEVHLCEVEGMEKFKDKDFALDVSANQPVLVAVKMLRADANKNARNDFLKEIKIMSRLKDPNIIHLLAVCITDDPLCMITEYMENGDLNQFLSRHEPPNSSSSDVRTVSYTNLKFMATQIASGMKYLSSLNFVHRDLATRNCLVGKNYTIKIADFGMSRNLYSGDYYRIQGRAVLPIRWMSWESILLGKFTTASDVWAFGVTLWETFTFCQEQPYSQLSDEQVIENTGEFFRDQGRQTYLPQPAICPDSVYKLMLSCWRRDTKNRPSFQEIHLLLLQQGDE
# [16] = biological target: Casein kinase II subunit alpha' (Homo sapiens) (UniProt P19784); conditions: Compound concentration 1000.0 nM
# [17] = biological target: Serine/threonine-protein kinase MAK (Homo sapiens) (UniProt P20794); conditions: Compound concentration 1000.0 nM
# [18] = biological target: Dual specificity mitogen-activated protein kinase kinase 7 (Homo sapiens) (UniProt O14733); conditions: Compound concentration 1000.0 nM
# Dual specificity mitogen-activated protein kinase kinase 7 (Homo sapiens), sequence (O14733 whole entry): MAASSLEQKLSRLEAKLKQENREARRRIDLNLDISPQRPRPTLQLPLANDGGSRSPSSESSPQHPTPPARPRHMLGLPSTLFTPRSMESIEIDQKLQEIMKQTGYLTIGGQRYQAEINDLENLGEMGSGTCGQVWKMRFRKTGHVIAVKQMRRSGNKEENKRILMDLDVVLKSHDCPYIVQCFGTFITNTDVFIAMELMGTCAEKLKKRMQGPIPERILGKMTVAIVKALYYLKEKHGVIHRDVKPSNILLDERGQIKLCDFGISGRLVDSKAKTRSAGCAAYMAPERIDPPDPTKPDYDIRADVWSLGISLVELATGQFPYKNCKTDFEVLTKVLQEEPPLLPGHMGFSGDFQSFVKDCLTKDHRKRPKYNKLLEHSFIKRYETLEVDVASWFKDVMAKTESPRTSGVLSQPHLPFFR
# [19] = biological target: Cyclin-dependent kinase 11A (Homo sapiens) (UniProt Q9UQ88); conditions: Compound concentration 1000.0 nM
# [20] = biological target: Inhibitor of nuclear factor kappa-B kinase subunit epsilon (Homo sapiens) (UniProt Q14164); conditions: Compound concentration 1000.0 nM
# [21] = biological target: Mitogen-activated protein kinase 15 (Homo sapiens) (UniProt Q8TD08); conditions: Compound concentration 1000.0 nM
# [22] = biological target: Epidermal growth factor receptor (Homo sapiens) (UniProt P00533); conditions: Compound concentration 1000.0 nM
# [23] = biological target: Serine/threonine-protein kinase 36 (Homo sapiens) (UniProt Q9NRP7); conditions: Compound concentration 1000.0 nM
# [24] = biological target: Mitogen-activated protein kinase kinase kinase 10 (Homo sapiens) (UniProt Q02779); conditions: Compound concentration 1000.0 nM
# Mitogen-activated protein kinase kinase kinase 10 (Homo sapiens), sequence (Q02779 whole entry, looked up): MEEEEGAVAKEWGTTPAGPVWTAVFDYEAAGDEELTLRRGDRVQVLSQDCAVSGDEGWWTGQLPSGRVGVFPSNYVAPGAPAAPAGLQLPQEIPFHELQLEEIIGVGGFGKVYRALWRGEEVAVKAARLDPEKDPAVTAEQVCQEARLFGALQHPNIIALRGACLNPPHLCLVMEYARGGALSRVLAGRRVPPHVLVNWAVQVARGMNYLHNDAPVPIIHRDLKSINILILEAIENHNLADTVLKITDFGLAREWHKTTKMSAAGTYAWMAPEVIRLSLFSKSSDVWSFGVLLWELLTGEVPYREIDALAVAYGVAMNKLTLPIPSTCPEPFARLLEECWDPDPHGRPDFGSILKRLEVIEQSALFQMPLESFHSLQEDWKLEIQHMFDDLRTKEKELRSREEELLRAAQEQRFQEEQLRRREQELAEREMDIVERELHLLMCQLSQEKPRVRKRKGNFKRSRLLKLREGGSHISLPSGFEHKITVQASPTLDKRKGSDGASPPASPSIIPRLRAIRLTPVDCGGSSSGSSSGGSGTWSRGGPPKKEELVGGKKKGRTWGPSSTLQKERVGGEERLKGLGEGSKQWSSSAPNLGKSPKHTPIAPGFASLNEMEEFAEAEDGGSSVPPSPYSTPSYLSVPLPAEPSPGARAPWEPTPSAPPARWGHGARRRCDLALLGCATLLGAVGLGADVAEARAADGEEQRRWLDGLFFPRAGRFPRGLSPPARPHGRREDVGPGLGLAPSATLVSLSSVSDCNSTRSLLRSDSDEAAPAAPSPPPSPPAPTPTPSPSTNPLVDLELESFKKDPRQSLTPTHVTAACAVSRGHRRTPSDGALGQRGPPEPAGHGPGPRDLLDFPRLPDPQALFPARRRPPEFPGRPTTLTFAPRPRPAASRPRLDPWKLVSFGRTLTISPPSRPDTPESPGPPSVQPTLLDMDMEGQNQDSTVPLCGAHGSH
# [25] = biological target: D(2) dopamine receptor (Homo sapiens) (UniProt P14416); conditions: Compound concentration 10.0 uM
# [26] = biological target: Serine/threonine-protein kinase SBK1 (Homo sapiens) (UniProt Q52WX2); conditions: Compound concentration 1000.0 nM
# [27] = system: Receptor-type tyrosine-protein kinase FLT3 (Homo sapiens), P36888 [UNDEFINED MUTATION]; conditions: Compound concentration 1000.0 nM
# [28] = biological target: NUAK family SNF1-like kinase 2 (Homo sapiens) (UniProt Q9H093); conditions: Compound concentration 1000.0 nM
# [29] = biological target: Phosphatidylinositol 4-phosphate 5-kinase type-1 gamma (Homo sapiens) (UniProt O60331); conditions: Compound concentration 1000.0 nM
# Phosphatidylinositol 4-phosphate 5-kinase type-1 gamma (Homo sapiens), sequence (O60331 whole entry): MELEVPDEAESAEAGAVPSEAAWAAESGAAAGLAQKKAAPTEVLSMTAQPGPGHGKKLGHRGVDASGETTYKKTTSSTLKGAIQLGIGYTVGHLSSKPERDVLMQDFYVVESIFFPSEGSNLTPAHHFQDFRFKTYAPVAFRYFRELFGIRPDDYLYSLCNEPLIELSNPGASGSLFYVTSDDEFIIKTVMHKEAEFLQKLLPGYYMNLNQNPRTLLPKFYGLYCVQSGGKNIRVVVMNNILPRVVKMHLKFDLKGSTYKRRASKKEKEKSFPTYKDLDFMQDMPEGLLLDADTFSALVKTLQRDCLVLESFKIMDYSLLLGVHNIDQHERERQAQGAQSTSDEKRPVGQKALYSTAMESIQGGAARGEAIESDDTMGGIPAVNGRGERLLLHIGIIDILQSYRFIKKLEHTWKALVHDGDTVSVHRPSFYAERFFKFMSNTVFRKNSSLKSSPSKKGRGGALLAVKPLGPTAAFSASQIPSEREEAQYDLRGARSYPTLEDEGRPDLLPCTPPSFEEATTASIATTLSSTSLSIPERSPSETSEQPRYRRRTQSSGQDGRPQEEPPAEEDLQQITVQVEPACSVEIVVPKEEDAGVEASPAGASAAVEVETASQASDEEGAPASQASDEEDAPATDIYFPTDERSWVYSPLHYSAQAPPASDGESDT
# [30] = biological target: Sigma non-opioid intracellular receptor 1 (Homo sapiens) (UniProt Q99720); conditions: Compound concentration 10.0 uM
# [31] = biological target: Serine/threonine-protein kinase NLK (Homo sapiens) (UniProt Q9UBE8); conditions: Compound concentration 1000.0 nM
# [32] = biological target: Mitogen-activated protein kinase kinase kinase 9 (Homo sapiens) (UniProt P80192); conditions: Compound concentration 1000.0 nM
# [33] = biological target: Serine/threonine-protein kinase/endoribonuclease IRE1 (Homo sapiens) (UniProt O75460); conditions: Compound concentration 1000.0 nM
# [34] = biological target: Tyrosine-protein kinase JAK3 (Homo sapiens) (UniProt P52333); conditions: Compound concentration 1000.0 nM
# [35] = biological target: Mitogen-activated protein kinase 14 (Homo sapiens) (UniProt Q16539); conditions: Compound concentration 1000.0 nM
# Mitogen-activated protein kinase 14 (Homo sapiens), sequence (Q16539 whole entry): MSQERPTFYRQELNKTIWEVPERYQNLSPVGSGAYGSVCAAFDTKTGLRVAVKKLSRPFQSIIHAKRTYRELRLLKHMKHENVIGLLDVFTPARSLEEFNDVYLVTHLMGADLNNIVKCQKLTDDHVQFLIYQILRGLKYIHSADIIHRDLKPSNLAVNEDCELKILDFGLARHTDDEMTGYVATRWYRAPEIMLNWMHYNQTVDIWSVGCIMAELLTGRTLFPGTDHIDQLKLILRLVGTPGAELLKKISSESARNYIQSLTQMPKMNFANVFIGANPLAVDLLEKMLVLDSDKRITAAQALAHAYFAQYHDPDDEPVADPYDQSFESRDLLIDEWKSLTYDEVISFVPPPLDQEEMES
# [36] = biological target: Uncharacterized serine/threonine-protein kinase SBK3 (Homo sapiens) (UniProt P0C264); conditions: Compound concentration 1000.0 nM
# [37] = biological target: Serine/threonine-protein kinase PLK3 (Homo sapiens) (UniProt Q9H4B4); conditions: Compound concentration 1000.0 nM
# [38] = biological target: Ephrin type-A receptor 4 (Homo sapiens) (UniProt P54764); conditions: Compound concentration 1000.0 nM
# [39] = biological target: Mitogen-activated protein kinase 9 (Homo sapiens) (UniProt P45984); conditions: Compound concentration 1000.0 nM
# [40] = system: Receptor-type tyrosine-protein kinase FLT3 (Homo sapiens), P36888 [D835Y]; conditions: Compound concentration 1000.0 nM
# [41] = biological target: Cyclin-dependent kinase 8 (Homo sapiens) (UniProt P49336); conditions: Compound concentration 1000.0 nM
# Cyclin-dependent kinase 8 (Homo sapiens), sequence (P49336 whole entry): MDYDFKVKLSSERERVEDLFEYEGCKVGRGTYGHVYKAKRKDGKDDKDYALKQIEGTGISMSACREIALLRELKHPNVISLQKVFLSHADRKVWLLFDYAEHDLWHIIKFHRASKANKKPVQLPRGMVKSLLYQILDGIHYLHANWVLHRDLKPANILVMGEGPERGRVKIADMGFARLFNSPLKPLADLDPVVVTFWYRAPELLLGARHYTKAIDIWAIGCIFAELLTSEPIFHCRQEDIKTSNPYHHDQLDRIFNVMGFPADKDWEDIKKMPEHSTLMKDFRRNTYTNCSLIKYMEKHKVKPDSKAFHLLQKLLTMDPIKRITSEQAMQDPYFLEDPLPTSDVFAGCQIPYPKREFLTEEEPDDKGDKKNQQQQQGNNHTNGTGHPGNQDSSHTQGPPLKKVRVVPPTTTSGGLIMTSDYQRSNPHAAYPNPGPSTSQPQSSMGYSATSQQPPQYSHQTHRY
# [42] = biological target: Serine/threonine-protein kinase Nek1 (Homo sapiens) (UniProt Q96PY6); conditions: Compound concentration 1000.0 nM
# [43] = biological target: Receptor-type tyrosine-protein kinase FLT3 (Homo sapiens) (UniProt P36888); conditions: Compound concentration 1000.0 nM
smiles,measurement,setting,value
Cc1c(NC(=O)c2cc(C(N)=O)nc3cc(F)ccc23)c(C(F)(F)F)nn1Cc1ccc(C(C)(C)C)cc1 [BAY-588],inhibition,[1],4.84%
same,residual activity,[2],100%
same,residual activity,[3],95%
same,residual activity,[4],72%
same,residual activity,[5],100%
same,residual activity,[6],100%
same,residual activity,[7],100%
same,residual activity,[8],95%
same,residual activity,[9],56%
same,residual activity,[10],66%
same,inhibition,[11],9.54%
same,residual activity,[12],100%
same,residual activity,[13],100%
same,residual activity,[14],100%
same,residual activity,[15],93%
same,residual activity,[16],100%
same,residual activity,[17],85%
same,residual activity,[18],100%
same,residual activity,[19],94%
same,residual activity,[20],100%
same,residual activity,[21],56%
same,residual activity,[22],100%
same,residual activity,[23],97%
same,residual activity,[24],78%
same,inhibition,[25],18%
same,residual activity,[26],100%
same,residual activity,[27],100%
same,residual activity,[28],100%
same,residual activity,[29],78%
same,inhibition,[30],6.28%
same,residual activity,[31],100%
same,residual activity,[32],100%
same,residual activity,[33],89%
same,residual activity,[34],100%
same,residual activity,[35],100%
same,residual activity,[36],100%
same,residual activity,[37],94%
same,residual activity,[38],100%
same,residual activity,[39],100%
same,residual activity,[40],100%
same,residual activity,[41],100%
same,residual activity,[42],97%
same,residual activity,[43],100%
Cc1c(NC(=O)c2cc(C(N)=O)nc3cc(F)ccc23)c(C(F)(F)F)nn1Cc1ccc(C#N)cc1 [BAY-876],inhibition,[1],6.68%
same,residual activity,[2],73%
same,residual activity,[3],78%
same,residual activity,[4],77%
same,residual activity,[5],100%
same,residual activity,[6],91%
same,residual activity,[7],82%
same,residual activity,[8],1.5%
same,residual activity,[9],86%
same,residual activity,[10],66%
same,inhibition,[11],2.64%
same,residual activity,[12],97%
same,residual activity,[13],91%
same,residual activity,[14],59%
same,residual activity,[15],66%
same,residual activity,[16],100%
same,residual activity,[17],79%
same,residual activity,[18],79%
same,residual activity,[19],100%
same,residual activity,[20],75%
same,residual activity,[21],100%
same,residual activity,[22],100%
same,residual activity,[23],100%
same,residual activity,[24],92%
same,inhibition,[25],8.73%
same,residual activity,[26],75%
same,residual activity,[27],95%
same,residual activity,[28],83%
same,residual activity,[29],94%
same,inhibition,[30],-2.5%
same,residual activity,[31],100%
same,residual activity,[32],100%
same,residual activity,[33],78%
same,residual activity,[34],90%
same,residual activity,[35],91%
same,residual activity,[36],100%
same,residual activity,[37],84%
same,residual activity,[38],99%
same,residual activity,[39],77%
same,residual activity,[40],92%
same,residual activity,[41],56%
same,residual activity,[42],95%
same,residual activity,[43],99%
